Results: patent publication US5696089A, “Histidine substituted growth hormone releasing factor analogs” (Roche Vitamins Inc., priority 1995, dated 1997)
Where a SMILES comes first, the peptide text is derived from it. Where no end group is shown, it is not given here. The star is where a group is joined. Desaminohistidyl = O=C(CCc1c[nH]cn1)*

Key:
[1] = test system: rat pituitary cells; format: cell-based
Procedure: The biological activity of the novel peptides were compared with that of a synthetic standard of the natural sequence of GRF(1-44)-NH2 which was isolated from a human pancreatic tumor of an individual suffering from acromegaly (Salk Institute standard hp-GRF-NH2 (NL-A-10)). The assay for biological activity, which is based on the ability to stimulate production of growth hormone in rat pituitary cells in tissue culture, was performed in the following manner. Pituitaries from 30-40 male Sprague-Dawley rats (175 g) were removed aseptically after decapitation. The anterior lobes were collected, washed 3 times in sterile Hepes buffer (0.025M)(pH 7.35) and dispersed at 37° C. in 20-30 ml Hepes buffer (pH 7.35) containing collagenasa (4 mg per ml) and Dispase (Protease grande II, 2 mg per ml). After gentle 80 min. vortexing and trituration by Pasteur pipette, the dispersed cells were separated by centrifugation (150×g, 4 min.) and re-suspended in Hepes buffer containing neuraminidase (4 μg/ml), and 200 μg/ml ethylenediaminetetraacetic acid (EDTA) disodium salt pH 7.35, for 10 min. The cells were washed twice with plating medium and plated on multiwell-plates (1.5×10^5 cells per ml) using the following defined medium: F-12/DMEM/BGJ(6:3:1) (Gibco: 430-1700/430-1600/320-2591) with 2 g BSA/1., 2.38 g Hepes/1., 50 mg Gentamycin/1 (Schering Co.). The medium in each well was supplemented either with the novel peptide or natural GRF(1-44)-NH2 at concentrations ranging from 3.1 to 200 fmol. per ml. of medium. Control wells contained no supplement. Plating was done with this medium added with 2% fetal calf serum to ensure rapid fixation of the cells. On the fourth day the cells were washed twice with the defined medium without fetal calf serum. Finally 900 μl of defined medium was added to each well plus 100 μl of the same medium containing each individual treatment, in triplicate. After 3 hours of incubation the medium was collected and diluted as required to conduct radioimmuno- assays (RIAs) for rat growth hormone. RIAs were conducted using Sinha's anti-murine GH immune serum and procedures according to the National Pituitary Agency using protein A to precipitate antibody antigen complex.

[2] = In vitro plasma stability by porcine plasma incubation at 37° C.; format: in vitro ADME; details: pooled porcine plasma, 100 μg/ml, HPLC after SEP-PAK extraction
Procedure: In vitro plasma stability of GRF analogs were determined by porcine plasma incubation at 37° C. Pooled porcine plasma was collected from control pigs and stored at -20° C. GRF analogs of interest were prepared as discussed above. The plasma was first thawed and centrifuged at 3000 rpm for 20 minutes at 4° C. The plasma was then placed in a shaker bath at a temperature of 37° C. and allowed to equilibrate for 10 minutes. GRF analogs were dissolved in water containing 0.1% TFA at a concentration of 2 μg/μl. As soon as the initial equilibration was completed, an analog was added into the plasma sample to a final concentration of 100 μg/ml. Immediately after the addition of a GRF analog, a 1 ml aliquot of plasma sample was withdrawn and acidified with 0.2 ml of 0.1M TFA/H2 O and kept at 0° C. for later solid phase extraction. The remaining plasma samples were incubated in the water bath and 1 ml aliquots were withdrawn at different time periods and acidified by the same procedure described above.
Plasma samples were extracted with SEP-PAK octadecyl columns (Waters Associates). The column cartridge was washed with 2 ml 80% acetic acid followed by 4 ml of 0.01M TFA. After the plasma sample was loaded, the column was washed with 3 ml of 0.1M TFA to remove the excess unbound biological material. The solvent remaining in the cartridges was forced out by two passes of air from a 10 ml syringe. The bound material was then eluted with 80% acetic acid and 3 ml eluate was collected for chromatographic analysis. Two high performance liquid chromatography systems were used. System A: Instrumentation--Perkin-Elmer Series 4 liquid chromatography microprocessor-controlled solvent delivery system, Waters intelligent sample processor (WISP) model 710 (Waters Associates), and a Hewlett-Packard 1040M Diode Assay Detection System. Column--Delta Pak C18, 3.5×150 mm, 5 μm spherical (Nihon Waters Ltd.). Mobile phase-(A) 0.1% TFA in H2 O, (B) 0.1% TFA in 95% acetonitrile and 5% H2 O. Gradient was 34-50% (B) in 60 minutes, flow rate 1 ml/minute, and the detection was at 215 nm. System B: Instrumentation--Waters 600 multi-solvent delivery system, WISP model 712 and LDC spectromonitor III. Column--Vydac 201TP54, C18 4.6×250 mm, 10 μm (The Separations Group). Mobile phase--same as in System A. Gradient max 30% (B) isocratic for 10 minutes, followed by 30-50% (B) gradient for 60 minutes, flow rate was 1 ml/minute, and the detection was at 215 nm. Amino acid analysis was done as described above. Results of plasma half life are found in Table 2.

Compound	Half Life (t1/2) [2] [h]	Potency of GRF Analogs Relative to GRF(1-44)-NH2 [1]
CC[C@H](C)[C@H](NC(=O)[C@H](C)NC(=O)[C@H](CC(=O)O)NC(=O)[C@H](C)NC(=O)[C@@H](N)Cc1ccc(O)cc1)C(=O)N[C@@H](Cc1ccccc1)C(=O)N[C@H](C(=O)N[C@@H](CC(N)=O)C(=O)N[C@@H](CO)C(=O)N[C@@H](Cc1ccc(O)cc1)C(=O)N[C@@H](CCCNC(=N)N)C(=O)N[C@@H](CCCCN)C(=O)N[C@H](C(=O)N[C@@H](CC(C)C)C(=O)NCC(=O)N[C@@H](CCC(N)=O)C(=O)N[C@@H](CC(C)C)C(=O)N[C@@H](CO)C(=O)N[C@@H](C)C(=O)N[C@@H](CCCNC(=N)N)C(=O)N[C@@H](CCCCN)C(=O)N[C@@H](CC(C)C)C(=O)N[C@@H](CC(C)C)C(=O)N[C@@H](CCC(N)=O)C(=O)N[C@@H](CC(=O)O)C(=O)N[C@H](C(=O)N[C@@H](CCSC)C(=O)N[C@@H](CO)C(=O)N[C@@H](CCCNC(=N)N)C(N)=O)[C@@H](C)CC)C(C)C)[C@@H](C)O [GRF(1-29)-NH2, reference compound]	0.217	0.71
CC[C@H](C)[C@H](NC(=O)[C@H](C)NC(=O)[C@H](CC(=O)O)NC(=O)[C@H](C)NC(=O)[C@@H](N)Cc1ccc(O)cc1)C(=O)N[C@@H](Cc1ccccc1)C(=O)N[C@H](C(=O)N[C@@H](CC(N)=O)C(=O)N[C@@H](CO)C(=O)N[C@@H](Cc1ccc(O)cc1)C(=O)N[C@@H](CCCNC(=N)N)C(=O)N[C@@H](CCCCN)C(=O)N[C@H](C(=O)N[C@@H](CC(C)C)C(=O)NCC(=O)N[C@@H](CCC(N)=O)C(=O)N[C@@H](CC(C)C)C(=O)N[C@@H](CO)C(=O)N[C@@H](C)C(=O)N[C@@H](CCCNC(=N)N)C(=O)N[C@@H](CCCCN)C(=O)N[C@@H](CC(C)C)C(=O)N[C@@H](CC(C)C)C(=O)N[C@@H](CCC(N)=O)C(=O)N[C@@H](CC(=O)O)C(=O)N[C@H](C(=O)N[C@@H](CCSC)C(=O)N[C@@H](CO)C(=O)N[C@@H](CCCNC(=N)N)C(=O)N[C@@H](CCC(N)=O)C(=O)N[C@@H](CCC(N)=O)C(=O)NCC(=O)N[C@@H](CCC(=O)O)C(=O)N[C@@H](CO)C(=O)N[C@@H](CC(N)=O)C(=O)N[C@@H](CCC(N)=O)C(=O)N[C@@H](CCC(=O)O)C(=O)N[C@@H](CCCNC(=N)N)C(=O)NCC(=O)N[C@@H](C)C(=O)N[C@@H](CCCNC(=N)N)C(=O)N[C@@H](C)C(=O)N[C@@H](CCCNC(=N)N)C(=O)N[C@@H](CC(C)C)C(N)=O)[C@@H](C)CC)C(C)C)[C@@H](C)O [GRF(1-44)-NH2, reference compound]	–	1.00
CC[C@H](C)[C@H](NC(=O)[C@H](C)NC(=O)[C@H](CC(=O)O)NC(=O)[C@@H](NC(=O)CCc1c[nH]cn1)C(C)C)C(=O)N[C@@H](Cc1ccccc1)C(=O)N[C@H](C(=O)N[C@@H](CC(N)=O)C(=O)N[C@@H](CO)C(=O)N[C@@H](Cc1ccc(O)cc1)C(=O)N[C@@H](CCCNC(=N)N)C(=O)N[C@@H](CCCCN)C(=O)N[C@H](C(=O)N[C@@H](CC(C)C)C(=O)N[C@@H](C)C(=O)N[C@@H](CCC(N)=O)C(=O)N[C@@H](CC(C)C)C(=O)N[C@@H](CO)C(=O)N[C@@H](C)C(=O)N[C@@H](CCCNC(=N)N)C(=O)N[C@@H](CCCCN)C(=O)N[C@@H](CC(C)C)C(=O)N[C@@H](CC(C)C)C(=O)N[C@@H](CCC(N)=O)C(=O)N[C@@H](CC(=O)O)C(=O)N[C@H](C(=O)N[C@@H](CCSC)C(=O)N[C@@H](CO)C(=O)N[C@@H](CCCNC(=N)N)C(N)=O)[C@@H](C)CC)C(C)C)[C@@H](C)O [[desNH2 His^1,Val^2,Ala^15]-GRF(1-29)-NH2] (Desaminohistidyl-VDAIFTNSYRKVLAQLSARKLLQDIMSR-NH2)	–	1.21
HIDAIFTNSYRKVLAQLSARKLLQDIMSR-NH2 [[His^1,Ile^2,Ala^15]-GRF(1-29)-NH2]	–	1.24

Second part, led by results:

Half Life (t1/2) [2] [h]	Compound	Potency of GRF Analogs Relative to GRF(1-44)-NH2 [1]
1	HVDAIFTNSYRKVLAQLSARKLLQDILSRQQG [[His^1,Val^2,Ala^15,Leu^27]-GRF(1-32)-OH]	2.40
1	HVDAIFTNSYRKVLAQLSARKLLQDIMSR-NH2 [[His^1,Val^2,Ala^15]-GRF(1-29)-NH2]	2.58
0.283	YADAIFTNSYRKVLAQLSARKLLQDIMSR-NH2 [[Ala^15]-GRF(1-29)-NH2, reference compound]	–
1.17	YVDAIFTNSYRKVLAQLSARKLLQDILSRQQG [[Val^2,Ala^15,Leu^27]-GRF(1-32)-OH]	–
